Earlier results in patent US20170368087A1, “PHARMACEUTICAL COMPOSITION COMPRISING TOPIRAMATE” (INNOVACO PHARMACEUTICALS, INC., priority 2014, published 2017).

solubility in acetone, dimethyl sulfoxide, ethanol, and alkaline solutions containing sodium hydroxide or sodium phosphate: freely soluble
solubility in water (room temperature): approximately 9.8 mg/mL
SMILES: CC1(C)O[C@@H]2[C@@H](CO[C@@]3(COS(N)(=O)=O)OC(C)(C)O[C@@H]23)O1 [Topiramate, 2,3:4,5-Di-O-isopropylidene-β-D-fructo-pyranose sulfamate]
